Patent US20060263305A1, “Biofilm removing agent for removing a biofilm” (priority 2003, published 2006)

Tests used:
[1] = test system: biofilm formed by periodontal pathogens; assay: biofilm inhibition ratio (inhibiting formation of the biofilm) in a glass vessel; assay type: cell-based, periodontal pathogens (gram-negative bacteria); settings: 1 mg in 100 ml distilled water, added together with the pathogens; read after 24 hours; relative to distilled water alone; FIG. 2
Method: Periodontal pathogens were put in a glass vessel together with a biofilm removing agent containing 1 mg of azithromycin as a medical agent dissolved in 100 ml of distilled water. After lapse of 24 hours, an inhibition ratio of the biofilm to be formed by the periodontal pathogens was examined.
Further, the biofilm inhibition ratio of the biofilm removing agent containing azithromycin according to this invention was evaluated in comparison with the biofilm inhibition ration of each of minocycline, erythromycin, and josamycin. Specifically, each of minocycline, erythromycin, and josamycin was put into a glass vessel together with periodontal pathogens and distilled water. After lapse of 24 hours, the biofilm inhibition ratio of the biofilm formed by the periodontal pathogens was examined.
The content of each of minocycline, erythromycin, and josamycin in the distilled water was equal to that of the biofilm removing agent containing azithromycin.
In FIG. 2, the biofilm inhibition ratio of each of azithromycin, minocycline, erythromycin, and josamycin is a ratio of a part without the biofilm with respect to an entire biofilm formed by the periodontal pathogens in presence of distilled water alone without any antibiotic.

[2] = test system: biofilm formed by periodontal pathogens; assay: biofilm destruction ratio on a preformed biofilm in a glass vessel; assay type: cell-based, periodontal pathogens (gram-negative bacteria); settings: 1 mg in 100 ml distilled water; biofilm formed for 24 hours; read after 24 hours; relative to distilled water alone; FIG. 1
Method: Periodontal pathogens were put in a glass vessel and left for 24 hours to form a biofilm. Then, a solution of a biofilm removing agent containing 1 mg of azithromycin as a medical agent dissolved in 100 ml of distilled water was supplied into the glass vessel. After lapse of 24 hours, a destruction ratio of the biofilm formed by the periodontal pathogens was examined. Further, the biofilm destruction ratio of the biofilm removing agent containing azithromycin according to this invention was evaluated in comparison with the biofilm destruction ratio of each of minocycline, erythromycin, and josamycin. Specifically, each of minocycline, erythromycin, and josamycin was supplied together with distilled water into a glass vessel in which the biofilm was formed. After lapse of 24 hours, the destruction ratio of the biofilm formed by the periodontal pathogens was examined. The content of each of minocycline, erythromycin, and josamycin in the distilled water was equal to that of the biofilm removing agent containing azithromycin. […] In FIG. 1, the biofilm destruction ratio by each of azithromycin, minocycline, erythromycin, and josamycin is a ratio of a destroyed or lost part of the biofilm with respect to a biofilm formed by the periodontal pathogens and supplied with distilled water alone without any antibiotic.

[3] = compared with 14-membered ring macrolide antibiotics; stated without a test; cited from earlier work
[4] = compared with 14-membered ring macrolide antibiotics; stated without a test; cited from earlier work; remark: listed apart in the source
[5] = test system: hepatic metabolic enzymes; settings: compared with 14-membered ring macrolide antibiotics; stated without a test; cited from earlier work

Compound	biofilm inhibition ratio (adhesion prevention ratio of gram-negative bacteria) [1]	biofilm destruction ratio (destruction ratio of gram-negative bacteria) [2]	stability against gastric acid [3]	digestive side effect [4]	activation of hepatic metabolic enzymes [5]
CC[C@H]1OC(=O)[C@H](C)[C@@H](O[C@H]2C[C@@](C)(OC)[C@@H](O)[C@H](C)O2)[C@H](C)[C@@H](O[C@@H]2O[C@H](C)C[C@H](N(C)C)[C@H]2O)[C@](C)(O)C[C@@H](C)C(=O)[C@H](C)[C@@H](O)[C@]1(C)O [erythromycin]	about 40%	about 35%			
CO[C@@H]1[C@@H](O[C@@H]2O[C@H](C)[C@@H](O[C@H]3C[C@@](C)(O)[C@@H](OC(=O)CC(C)C)[C@H](C)O3)[C@H](N(C)C)[C@H]2O)[C@@H](CC=O)C[C@@H](C)[C@@H](O)/C=C/C=C/C[C@@H](C)OC(=O)C[C@H]1OC(C)=O [josamycin]	about 35%	about 25%			
CN(C)c1ccc(O)c2c1C[C@H]1C[C@H]3[C@H](N(C)C)C(O)=C(C(N)=O)C(=O)[C@@]3(O)C(O)=C1C2=O [minocycline]	about 23%	about 10%			
CC[C@H]1OC(=O)[C@H](C)[C@@H](O[C@H]2C[C@@](C)(OC)[C@@H](O)[C@H](C)O2)[C@H](C)[C@@H](O[C@@H]2O[C@H](C)C[C@H](N(C)C)[C@H]2O)[C@](C)(O)C[C@@H](C)CN(C)[C@H](C)[C@@H](O)[C@]1(C)O [azithromycin]	about 45%	about 60%	considerably stable	equivalent	extremely small level
